# Data taken from patent US11986464B2, “5HT3R antagonist for use in treating aneurysms and cardiovascular risk” (University of Kentucky Research Foundation, priority 2021, dated 2024).
# Columns and labels:
# [1] = tested on: AngII-infused XY male Ldlr−/− mice (XYM); experiment: AngII-induced aortic pathology (DTA, AA) and aortic weights; format: in vivo; conditions: for mean weight of the aortas: 7 days then 28 days with AngII 1,000 ng/kg/min, ±SEM
# Procedure: Tropisetron (Trop) is an exemplary 5HT3R antagonist used in these studies.^136 Effects of Trop were tested against AngII-induced aortic pathology in XY male Ldlr−/− mice (XYM). […] Mice were fed a Western diet (high fat, high sucrose, high cholesterol) beginning one week prior to the start of treatments. XYM Ldlr−/− mice were administered two different doses of Trop (10 or 20 mg/kg/day) by osmotic minipump for 7 days. The minipumps were then replaced with new pumps containing both AngII (1,000 ng/kg/min) and Trop and treatment was continued for 28 days. Aortas were removed from the iliac bifurcation to the end of the arch and fixed in formalin. Aortas were then cleaned and weighed.
# [2] = tested on: AngII-infused XYM Ldlr−/− mice; experiment: Ultrasound internal lumen diameters of abdominal aortas; format: in vivo; conditions: for average internal lumen diameter of abdominal aorta on Day 27: ultrasound, ±SEM, in mm (unit assumed)
# Procedure: (§1) Male mice (XYM Ldlr−/−) were fed a Western diet (high fat, high sucrose, high cholesterol) beginning one week prior to the start of treatments. XYM Ldlr−/− mice were then administered two different doses of Trop (10 or 20 mg/kg/day) by osmotic minipump for 7 days. The minipumps were then replaced with new pumps containing both AngII (1,000 ng/kg/min) and Trop and treatment was continued for 28 days.
# Internal lumen diameters of abdominal aortas from AngII treated mice treated with either dose of tropisetron were smaller than those from the AngII alone group after 27 days of treatment (FIG. 18). The average diameters on Day 27 were: AngII=1.77±0.35; Trop 10=1.32±0.23; Trop 20=1.20±0.28 (±SEM, *P<0.05 compared to AngII). The average diameters in all three groups increased from their baseline values with the AngII group having the largest increase followed by the Trop 20 and then Trop 10 group. […] An increase of 50% or more is considered an aneurysm.
# [3] = tested on: AngII-infused XYM Ldlr−/− mice; experiment: Incidence and grading of AngII-induced abdominal aortic aneurysms; format: in vivo; conditions: for mice with Abdominal Aneurysm Grade 0: 0 = no aneurysm; for mice with Abdominal Aneurysm Grade 4: 4 being a rupture
# Procedure: as §1
# [4] = tested on: AngII-infused XYM Ldlr−/− mice; experiment: Systolic and diastolic blood pressure induced by AngII; format: in vivo; conditions: for mean systolic blood pressure: ±SEM
# Procedure: as §1
# Blood pressures were taken on five consecutive days. Measurements from the last three days were used to calculate blood pressures for each group. The mean systolic blood pressures are in mm Hg (±SEM): AngII=149±3.4; Trop 10=146±5.6; Trop 20=128±4.4. The mean diastolic blood pressures were in mm Hg: AngII=86±4.0; Trop 10=83±6.0; Trop 20=70±4.1 (FIG. 21).
# [5] = tested on: AngII-infused XYM Ldlr−/− mice; experiment: Maximal external diameters of excised abdominal aortas; format: in vivo; conditions: ±SEM
# Procedure: as §1, with “28 days. External abdominal aortic diameters were quantified on excised, cleaned tissue mounted on a black wax background. A Nikon SMZ800 dissecting microscope was used to obtain aorta images and the maximal external diameter of the abdominal aorta was measured using Nikon NIS-Elements Version 5.2.” for “28 days.”
# [6] = tested on: AngII-infused XYM Ldlr−/− mice; experiment: Atherosclerosis quantified en face (aortic arch, thoracic aorta); format: in vivo
# Procedure: as §1
# Atherosclerosis was quantified en face in the aortic arch. Briefly, the entire length of the aorta was removed and the intimal surface exposed, in its entirety, by a longitudinal cut through the inner curvature of the aortic arch and down the anterior aspect of the remaining aorta. A cut is also made through the greater curvature of the aortic arch to the subclavian branch. The tissue is then pinned to a dark surface. Arch areas were defined by drawing a 3-mm line from the left subclavian artery. The intimal area of the aortic arch was defined as the region from the orifice of innominate artery to the orifice of the left subclavian artery. Thoracic areas were defined by drawing a 9 mm line from the end of the arch area to the diaphragm muscle. Atherosclerotic areas were quantified by drawing a line around the borders and summing the total area of each. Lesions were summed and divided by the total arch or thoracic area to calculate the percent lesion area. Measurements were performed using Nikon NIS-Elements Version 5.2.
# [7] = tested on: AngII-infused XYM Ldlr−/− mice; experiment: Serum cholesterol and triglycerides by enzymatic assay kits; format: in vivo; conditions: in mg/dL (unit assumed)
# Procedure: as §1, with “28 days. Concentrations of total serum cholesterol, triglycerides and free fatty acids were quantified (blood collected from cardiac puncture) using enzymatic assay kits.” for “28 days.”
# [8] = tested on: AngII-infused XXF and XYM Ldlr−/− mice; conditions: nicotine 4 mg/kg/day co-infused with AngII 1,000 ng/kg/min
# Procedure: (§2) Mice were fed a Western diet beginning one week prior to co-infusion of AngII (1,000 ng/kg/min) and nicotine (4 mg/kg/day^130). Ultrasound as used to quantify internal lumen diameters of AA to calculate the percentage of mice with pathology (50% increase compared to day 0 of infusions; FIG. 12A). […] Aortas were harvested for RNA extraction, and thus DTA maximal diameters could not be quantified at study endpoint.
# Htr3a mRNA = conditions: nicotine co-infused with AngII, compared to AngII
# Procedure: as §2
# To define potential mechanisms for these effects, and whether they are linked to 5HT3R, Htr3a mRNA abundance was quantified in DTA and AA of XXF and XYM AngII-infused mice.
# [9] = Trop 10 or 20 mg/kg/day, compared to AngII alone
smiles,measurement,setting,value
CN1[C@@H]2CC[C@H]1C[C@@H](OC(=O)c1c[nH]c3ccccc13)C2 [Trop],mean weight of the aortas,[1]; Trop 10 mg/kg/day by osmotic minipump,0.035 g
same,mean weight of the aortas,[1]; Trop 20 mg/kg/day by osmotic minipump,0.023 g
same,percentage of AngII-induced pathology of AA,[1]; [9],dose-dependent reduction
same,percentage of AngII-induced pathology of DTA,[1]; [9],dose-dependent reduction
same,average internal lumen diameter of abdominal aorta on Day 27,[2]; Trop 10 mg/kg/day,1.32±0.23
same,percent increase in abdominal aorta diameters on Day 27 compared to Day 0,"[2]; Trop 20 mg/kg/day, compared to AngII, P<0.05",significantly different
same,average internal lumen diameter of abdominal aorta on Day 27,[2]; Trop 20 mg/kg/day,1.20±0.28
same,% Incidence of abdominal aneurysms,[3]; Trop 10 mg/kg/day,30%
same,mice with Abdominal Aneurysm Grade 1,[3]; Trop 10 mg/kg/day,3
same,mice with Abdominal Aneurysm Grade 2,[3]; Trop 10 mg/kg/day,0
same,mice with Abdominal Aneurysm Grade 3,[3]; Trop 10 mg/kg/day,0
same,mice with Abdominal Aneurysm Grade 0,[3]; Trop 10 mg/kg/day,7
same,mice with Abdominal Aneurysm Grade 4,[3]; Trop 10 mg/kg/day,0
same,% Incidence of abdominal aneurysms,[3]; Trop 20 mg/kg/day,20%
same,mice with Abdominal Aneurysm Grade 1,[3]; Trop 20 mg/kg/day,0
same,mice with Abdominal Aneurysm Grade 2,[3]; Trop 20 mg/kg/day,1
same,mice with Abdominal Aneurysm Grade 3,[3]; Trop 20 mg/kg/day,0
same,mice with Abdominal Aneurysm Grade 0,[3]; Trop 20 mg/kg/day,8
same,mice with Abdominal Aneurysm Grade 4,[3]; Trop 20 mg/kg/day,1
same,mean diastolic blood pressure,[4]; Trop 10 mg/kg/day,83±6.0 mm Hg
same,mean systolic blood pressure,[4]; Trop 10 mg/kg/day,146±5.6 mm Hg
same,mean diastolic blood pressure,[4]; Trop 20 mg/kg/day,70±4.1 mm Hg
same,mean systolic blood pressure,[4]; Trop 20 mg/kg/day,128±4.4 mm Hg
same,mean external diameter of abdominal aorta,[5]; Trop 10 mg/kg/day,1.08±0.13 mm
same,mean external diameter of abdominal aorta,[5]; Trop 20 mg/kg/day,0.87±0.11 mm
same,atherosclerosis (percent lesion area) in the thoracic aortas,[6]; tropisetron 10 mg/kg/day,14.14±6.4%
same,percent lesion surface area of the aortic arch,[6]; tropisetron 10 mg/kg/day,14.92±5.3%
same,atherosclerosis (percent lesion area) in the thoracic aortas,[6]; tropisetron 20 mg/kg/day,7.43±7.95%
same,percent lesion surface area of the aortic arch,[6]; tropisetron 20 mg/kg/day,4.24±3.5%
same,serum cholesterol level,[7]; Trop 10 mg/kg/day,1683±109.5
same,serum triglyceride level,[7]; Trop 10 mg/kg/day,652±73.6
same,serum cholesterol level,[7]; Trop 20 mg/kg/day,1437±46.7
same,serum triglyceride level,[7]; Trop 20 mg/kg/day,549±54.4
CN1CCCC1c1cccnc1 (stereo not drawn) [nicotine],percentage of mice with pathology within the AA (50% increase in internal lumen diameter compared to day 0),[8],50%
same,Htr3a mRNA abundance in AA,Htr3a mRNA; XXF and XYM mice,significant increase
same,Htr3a mRNA abundance in DTA,Htr3a mRNA,no effect
